Source: patent publication US11834446B2, “Methods and compositions useful in treating cancer and reducing Wnt mediated effects in a cell” (StemSynergy Therapeutics, Inc., priority 2009, dated 2023)

system: Wnt reporter (TCF/LEF1 promoter) in HEK STF293 cells; experiment: HEK STF293 Wnt reporter (luciferase) assay; format: cell-based; details: Homo sapiens, STF/293, Wnt3a-conditioned media, Steady Glo normalized to Cell Titer
Experimental: Screening with STF293 and SW480STF. HEK STF293 cells are seeded at approximately 25,000-30,000 cells/well in a 96-well (100 uL volume). On the first day, Wnt3a-conditioned media (1:1) will be added along with diluted compounds (1:100). For example, for 100 ul of STF293 cells, 100 ul of Wnt3a-conditioned media and 2 ul of drug will be added to each well. The final concentrations should therefore be 100 μM, 30 μM, 10 μM, 3 μM, 1 μM, 300 nM, 100 nM, 30 nM, 10 nM, 3 nM, 1 nM, and 0.3 nM. On the second day, the media is removed and 75 ul of Passive Lysis Buffer (Promega) is added to each well. The plate will be shaken at 130 rpm for 15 minutes. For the Steady Glo assay, 45 ul of the lysis is removed and added to a white 96-well plate containing 45 uL/well of Steady Glo solution (Promega). For the Cell Titer assay, 25 ul of the lysis is transferred to a white 96-well plate containing 25 ul/well of Cell Titer solution (Promega). Both Steady Glo and Cell Titer assays will be read with a luminescence plate reader. When determining EC50, the Steady Glo values will be divided by the Cell Titer values to normalize for cell number and the resulting values plotted in a dose-response curve.
Experimental. All compounds were tested using the human cell line HEK STF293. This cell line carries a Wnt reporter (TCF/LEF1 promoter), which drives expression of the firefly luciferase protein. The level of Wnt activity is directly correlated with the level of luciferase activity (determined using a simple assay). Compounds that inhibit Wnt signaling by reducing luciferase activity in these two cell lines are further tested biochemically.
Compounds were prepared as 10 mM stocks for each compound in DMSO. Dilutions were prepared in a 96-well plate in DMSO. The stock dilutions are as follows: 10 mM, 1 mM, […]. Plates were sealed and stored at −20 C.
HEK STF293 cells were seeded at approximately 25,000-30,000 cells/well in a 96-well (100 uL volume). On the first day, Wnt3a-conditioned media (1:1) were added along with diluted compounds (1:100). For example, for 100 ul of STF293 cells, 100 ul of Wnt3a-conditioned media and 2 ul of drug was added to each well. The final concentrations should therefore be 100 uM, 10 uM, 1 uM, 100 nM, 10 nM, and 1 nM. On the second day, the media is removed and 75 ul of Passive Lysis Buffer (Promega) is added to each well. The plate is shaken at 130 rpm for 15 minutes. For the Steady Glo assay, 45 ul of the lysis is removed and added to a white 96-well plate containing 45 uL/well of Steady Glo solution (Promega). For the Cell Titer assay, 25 ul of the lysis is transferred to a white 96-well plate containing 25 ul/well of Cell Titer solution (Promega). Both Steady Glo and Cell Titer assays were read with a luminescence plate reader. When determining EC50, the Steady Glo values were divided by the Cell Titer values to normalize for cell number.

| SMILES | EC50 [nM] |
| --- | --- |
| Cc1nn(Cc2ccccc2)c(C)c1NC(=O)c1cc2n(n1)C(C(F)(F)F)CC(c1ccccc1)N2 (stereo not drawn) | ≤ 100 |
| Cc1nn(Cc2ccc(F)cc2)c(C)c1NC(=O)c1cc(-c2ccc(F)cc2)on1 | > 100 |
| Cc1nn(Cc2ccccc2)c(C)c1NC(=O)c1cc(-c2ccc(Br)cc2)on1 | ≤ 100 |
| COc1ccccc1-c1cc(C(=O)Nc2c(C)nn(Cc3ccc(F)cc3)c2C)no1 | > 100 |
| O=C(Nc1ccc(F)cc1)c1ccc(S(=O)(=O)N2CCc3ccccc32)cc1 | > 100 |
| Cc1ccc(NS(=O)(=O)c2ccc(NC(=O)c3n[nH]c4c3CCc3ccccc3-4)cc2)cc1 | > 100 |
| Cc1ccc(C)c(NS(=O)(=O)c2ccc(NC(=O)c3n[nH]c4c3CCc3ccccc3-4)cc2)c1 | > 100 |
| COc1cc2nc(NC(=O)c3ccc(S(=O)(=O)N(C)c4ccccc4)cc3)sc2cc1OC | > 100 |
| COc1cc2nc(NC(=O)c3ccc(S(=O)(=O)N4CCc5ccccc54)cc3)sc2cc1OC | > 100 |
| O=C(Nc1nc(-c2ccccn2)cs1)c1ccc(S(=O)(=O)N2CCCc3ccccc32)cc1 | ≤ 100 |
| Cc1sc(NC(=O)c2ccc(S(=O)(=O)N3CCc4ccccc43)cc2)nc1-c1ccccc1 | > 100 |
| NC(=O)c1ccccc1NC(=O)c1ccc(S(=O)(=O)Nc2ccccc2)cc1 | > 100 |
